Where “and” joins values, the source holds several entries; their conditions need not be identical. Equal values may be shown once. Records with an inconclusive call do not appear.
Tested on: BDF1 mice, colon carcinoma 38 sc, T/C %
Assay: NCI In Vivo Anticancer Drug Screen. Data for tumor model Colon Carcinoma 38 (subcutaneous) in B6D2F1 (BDF1) mice
In short: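 Compound antitumor activity was assessed in mice carrying transplantable tumors. Survival or tumor size was recorded, and each value is the treated-group measurement divided by that of the vehicle-treated control group.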

## Nc1ccc2c(c1)CN1C(=O)c3ccccc3C1=N2
endpoint: median survival time, dose: 60.0 mg/kg/injection, schedule: Q07DX002 (oral), vehicle: saline with Tween-80, higher = longer survival
  T/C: 96 % of control
endpoint: median survival time, dose: 100.0 mg/kg/injection, schedule: Q01DX008 (oral), vehicle: saline with Tween-80, higher = longer survival
  T/C: 103 % of control
endpoint: median survival time, dose: 200.0 mg/kg/injection, schedule: Q01DX008 (oral), vehicle: saline with Tween-80, higher = longer survival
  T/C: 96 % of control
endpoint: median survival time, dose: 800.0 mg/kg/injection, schedule: Q07DX002 (oral), vehicle: saline with Tween-80, higher = longer survival
  T/C: 90 % of control
endpoint: median survival time, dose: 1000.0 mg/kg/injection, schedule: Q07DX002 (oral), vehicle: saline with Tween-80, higher = longer survival
  T/C: 97 % of control
endpoint: median tumor weight (est.), dose: 50.0 mg/kg/injection, schedule: Q07DX002 (ip), vehicle: DMSO, higher = larger tumour
  T/C: 50 % of control
endpoint: median tumor weight (est.), dose: 100.0 mg/kg/injection, schedule: Q07DX002 (ip), vehicle: other, higher = larger tumour
  T/C: 13 % of control
endpoint: median tumor weight (est.), dose: 103.7 mg/kg/injection, schedule: Q01DX005 (oral), vehicle: saline with Tween-80, higher = larger tumour
  T/C: 52 % of control
endpoint: median tumor weight (est.), dose: 129.6 mg/kg/injection, schedule: Q06HX004 (oral), vehicle: saline with Tween-80, higher = larger tumour
  T/C: 26 % of control
endpoint: median tumor weight (est.), dose: 172.8 mg/kg/injection, schedule: Q01DX005 (oral), vehicle: saline with Tween-80, higher = larger tumour
  T/C: 52 % of control
endpoint: median tumor weight (est.), dose: 200.0 mg/kg/injection, schedule: Q07DX002 (oral), vehicle: saline with Tween-80, higher = larger tumour
  T/C: 27 % of control
endpoint: median tumor weight (est.), dose: 216.0 mg/kg/injection, schedule: Q06HX004 (oral), vehicle: saline with Tween-80, higher = larger tumour
  T/C: 16 % of control
endpoint: median tumor weight (est.), dose: 288.0 mg/kg/injection, schedule: Q01DX005 (oral), vehicle: saline with Tween-80, higher = larger tumour
  T/C: 7 % of control
endpoint: median tumor weight change, dose: 70.4 mg/kg/injection, schedule: Q01DX009 (oral), vehicle: saline with Tween-80, higher = larger tumour
  T/C: 13 % of control
endpoint: median tumor weight change, dose: 105.6 mg/kg/injection, schedule: Q01DX005 (oral), vehicle: saline with Tween-80, higher = larger tumour
  T/C: 68 % of control
endpoint: median tumor weight change, dose: 105.6 mg/kg/injection, schedule: Q01DX009 (oral), vehicle: saline with Tween-80, higher = larger tumour
  T/C: 42 % of control
endpoint: median tumor weight change, dose: 158.3 mg/kg/injection, schedule: Q01DX005 (oral), vehicle: saline with Tween-80, higher = larger tumour
  T/C: -5 % of control
endpoint: median tumor weight change, dose: 158.3 mg/kg/injection, schedule: Q01DX009 (oral), vehicle: saline with Tween-80, higher = larger tumour
  T/C: -40 % of control
endpoint: median tumor weight change, dose: 158.3 mg/kg/injection, schedule: Q06HX002 (oral), vehicle: saline with Tween-80, higher = larger tumour
  T/C: 71 % of control
endpoint: median tumor weight change, dose: 158.3 mg/kg/injection, schedule: Q06HX004 (oral), vehicle: saline with Tween-80, higher = larger tumour
  T/C: 60 % of control
endpoint: median tumor weight change, dose: 158.3 mg/kg/injection, schedule: Q07DX003 (oral), vehicle: saline with Tween-80, higher = larger tumour
  T/C: 24 % of control
endpoint: median tumor weight change, dose: 237.0 mg/kg/injection, schedule: Q08DX002 (oral), vehicle: saline with Tween-80, higher = larger tumour
  T/C: 33 % of control
endpoint: median tumor weight change, dose: 237.4 mg/kg/injection, schedule: Q01DX005 (oral), vehicle: saline with Tween-80, higher = larger tumour
  T/C: -60 % of control
endpoint: median tumor weight change, dose: 237.4 mg/kg/injection, schedule: Q06HX002 (oral), vehicle: saline with Tween-80, higher = larger tumour
  T/C: 37 % of control
endpoint: median tumor weight change, dose: 237.4 mg/kg/injection, schedule: Q06HX004 (oral), vehicle: saline with Tween-80, higher = larger tumour
  T/C: 36 % of control
endpoint: median tumor weight change, dose: 237.4 mg/kg/injection, schedule: Q07DX002 (oral), vehicle: saline with Tween-80, higher = larger tumour
  T/C: 80 % of control
endpoint: median tumor weight change, dose: 237.4 mg/kg/injection, schedule: Q07DX003 (oral), vehicle: saline with Tween-80, higher = larger tumour
  T/C: 69 % of control
endpoint: median tumor weight change, dose: 355.9 mg/kg/injection, schedule: Q01DX001 (oral), vehicle: saline with Tween-80, higher = larger tumour
  T/C: 68 % of control
endpoint: median tumor weight change, dose: 355.9 mg/kg/injection, schedule: Q01DX005 (oral), vehicle: saline with Tween-80, higher = larger tumour
  T/C: -88 % of control
endpoint: median tumor weight change, dose: 355.9 mg/kg/injection, schedule: Q06HX002 (oral), vehicle: saline with Tween-80, higher = larger tumour
  T/C: 48 % of control and 66 % of control
endpoint: median tumor weight change, dose: 355.9 mg/kg/injection, schedule: Q06HX004 (oral), vehicle: saline with Tween-80, higher = larger tumour
  T/C: -13 % of control
endpoint: median tumor weight change, dose: 355.9 mg/kg/injection, schedule: Q07DX002 (oral), vehicle: saline with Tween-80, higher = larger tumour
  T/C: 23 % of control
endpoint: median tumor weight change, dose: 355.9 mg/kg/injection, schedule: Q07DX003 (oral), vehicle: saline with Tween-80, higher = larger tumour
  T/C: 55 % of control
endpoint: median tumor weight change, dose: 355.9 mg/kg/injection, schedule: Q08DX002 (oral), vehicle: saline with Tween-80, higher = larger tumour
  T/C: 33 % of control
endpoint: median tumor weight change, dose: 533.6 mg/kg/injection, schedule: Q01DX001 (oral), vehicle: saline with Tween-80, higher = larger tumour
  T/C: 66 % of control
endpoint: median tumor weight change, dose: 533.6 mg/kg/injection, schedule: Q06HX002 (oral), vehicle: saline with Tween-80, higher = larger tumour
  T/C: -46 % of control and -38 % of control
endpoint: median tumor weight change, dose: 533.6 mg/kg/injection, schedule: Q06HX004 (oral), vehicle: saline with Tween-80, higher = larger tumour
  T/C: -50 % of control
endpoint: median tumor weight change, dose: 533.6 mg/kg/injection, schedule: Q07DX002 (oral), vehicle: saline with Tween-80, higher = larger tumour
  T/C: 52 % of control
endpoint: median tumor weight change, dose: 533.6 mg/kg/injection, schedule: Q07DX003 (oral), vehicle: saline with Tween-80, higher = larger tumour
  T/C: 34 % of control
endpoint: median tumor weight change, dose: 533.6 mg/kg/injection, schedule: Q08DX002 (oral), vehicle: saline with Tween-80, higher = larger tumour
  T/C: 34 % of control
endpoint: median tumor weight change, dose: 800.0 mg/kg/injection, schedule: Q01DX001 (oral), vehicle: saline with Tween-80, higher = larger tumour
  T/C: 47 % of control
endpoint: median tumor weight change, dose: 800.0 mg/kg/injection, schedule: Q06HX002 (oral), vehicle: saline with Tween-80, higher = larger tumour
  T/C: -87 % of control and -85 % of control
endpoint: median tumor weight change, dose: 800.0 mg/kg/injection, schedule: Q06HX004 (oral), vehicle: saline with Tween-80, higher = larger tumour
  T/C: -99 % of control
endpoint: median tumor weight change, dose: 800.0 mg/kg/injection, schedule: Q07DX002 (oral), vehicle: saline with Tween-80, higher = larger tumour
  T/C: 1 % of control
endpoint: median tumor weight change, dose: 800.0 mg/kg/injection, schedule: Q07DX003 (oral), vehicle: saline with Tween-80, higher = larger tumour
  T/C: -10 % of control
endpoint: median tumor weight change, dose: 800.0 mg/kg/injection, schedule: Q08DX002 (oral), vehicle: saline with Tween-80, higher = larger tumour
  T/C: -14 % of control
endpoint: median tumor weight change, dose: 1199.4 mg/kg/injection, schedule: Q01DX001 (oral), vehicle: saline with Tween-80, higher = larger tumour
  T/C: 39 % of control
endpoint: median tumor weight change, dose: 1199.4 mg/kg/injection, schedule: Q08DX002 (oral), vehicle: saline with Tween-80, higher = larger tumour
  T/C: -36 % of control

## Oc1c(Cl)cc(C(c2cc(Cl)c(O)c(Cl)c2)C(c2cc(Cl)c(O)c(Cl)c2)c2cc(Cl)c(O)c(Cl)c2)cc1Cl
endpoint: median tumor weight (est.), dose: 12.5 mg/kg/injection, schedule: Q07DX002 (ip), vehicle: Klucel (hydroxypropylcellulose) (HPC), higher = larger tumour
  T/C: 115 % of control and 99 % of control
endpoint: median tumor weight (est.), dose: 25.0 mg/kg/injection, schedule: Q07DX002 (ip), vehicle: Klucel (hydroxypropylcellulose) (HPC), higher = larger tumour
  T/C: 123 % of control
endpoint: median tumor weight (est.), dose: 50.0 mg/kg/injection, schedule: Q07DX002 (ip), vehicle: Klucel (hydroxypropylcellulose) (HPC), higher = larger tumour
  T/C: 96 % of control
endpoint: median tumor weight (est.), dose: 100.0 mg/kg/injection, schedule: Q07DX002 (ip), vehicle: Klucel (hydroxypropylcellulose) (HPC), higher = larger tumour
  T/C: 95 % of control and 104 % of control
endpoint: median tumor weight (est.), dose: 200.0 mg/kg/injection, schedule: Q07DX002 (ip), vehicle: Klucel (hydroxypropylcellulose) (HPC), higher = larger tumour
  T/C: 63 % of control and 86 % of control
endpoint: median tumor weight (est.), dose: 400.0 mg/kg/injection, schedule: Q07DX002 (ip), vehicle: Klucel (hydroxypropylcellulose) (HPC), higher = larger tumour
  T/C: 57 % of control and 82 % of control

## CC/C(=C(/CC)c1ccc(O)cc1)c1ccc(O)cc1
endpoint: median tumor weight (est.), dose: 12.5 mg/kg/injection, schedule: Q07DX003 (ip), vehicle: saline with Tween-80, higher = larger tumour
  T/C: 96 % of control
endpoint: median tumor weight (est.), dose: 25.0 mg/kg/injection, schedule: Q07DX003 (ip), vehicle: saline with Tween-80, higher = larger tumour
  T/C: 153 % of control
endpoint: median tumor weight (est.), dose: 100.0 mg/kg/injection, schedule: Q07DX003 (ip), vehicle: saline with Tween-80, higher = larger tumour
  T/C: 76 % of control
endpoint: median tumor weight (est.), dose: 200.0 mg/kg/injection, schedule: Q07DX003 (ip), vehicle: saline with Tween-80, higher = larger tumour
  T/C: 179 % of control

## CC1=C(/C=C/C(C)=C/C=C/C(C)=C/CO)C(C)(C)CCC1
endpoint: median tumor weight (est.), dose: 8.0 mg/kg/injection, schedule: Q07DX003 (ip), vehicle: saline with Tween-80, higher = larger tumour
  T/C: 113 % of control and 106 % of control
endpoint: median tumor weight (est.), dose: 32.0 mg/kg/injection, schedule: Q07DX003 (ip), vehicle: saline with Tween-80, higher = larger tumour
  T/C: 194 % of control
endpoint: median tumor weight (est.), dose: 64.0 mg/kg/injection, schedule: Q07DX003 (ip), vehicle: saline with Tween-80, higher = larger tumour
  T/C: 111 % of control and 122 % of control

## Cc1c2c(ccc3ccccc32)c[n+]2ccccc12
endpoint: median tumor weight (est.), dose: 3.12 mg/kg/injection, schedule: Q07DX002 (ip), vehicle: saline, higher = larger tumour
  T/C: 154 % of control
endpoint: median tumor weight (est.), dose: 6.25 mg/kg/injection, schedule: Q07DX002 (ip), vehicle: saline, higher = larger tumour
  T/C: 118 % of control
endpoint: median tumor weight (est.), dose: 12.5 mg/kg/injection, schedule: Q07DX002 (ip), vehicle: suspension in saline, higher = larger tumour
  T/C: 102 % of control
endpoint: median tumor weight (est.), dose: 25.0 mg/kg/injection, schedule: Q07DX002 (ip), vehicle: saline, higher = larger tumour
  T/C: 107 % of control
endpoint: median tumor weight (est.), dose: 25.0 mg/kg/injection, schedule: Q07DX002 (ip), vehicle: suspension in saline, higher = larger tumour
  T/C: 91 % of control

## CCC1=C[C@H]2CN(CCc3c([nH]c4ccccc34)[C@@](C(=O)OC)(c3cc4c(cc3OC)N(C)[C@H]3[C@@](O)(C(=O)NC)[C@H](OC(C)=O)[C@]5(CC)C=CCN6CC[C@]43[C@@H]65)C2)C1
endpoint: median tumor weight (est.), dose: 0.03 mg/kg/injection, schedule: Q07DX002 (ip), vehicle: saline, higher = larger tumour
  T/C: 116 % of control
endpoint: median tumor weight (est.), dose: 0.06 mg/kg/injection, schedule: Q07DX002 (ip), vehicle: saline, higher = larger tumour
  T/C: 84 % of control
endpoint: median tumor weight (est.), dose: 0.12 mg/kg/injection, schedule: Q07DX002 (ip), vehicle: saline, higher = larger tumour
  T/C: 90 % of control
endpoint: median tumor weight (est.), dose: 0.5 mg/kg/injection, schedule: Q07DX002 (ip), vehicle: saline, higher = larger tumour
  T/C: 108 % of control
endpoint: median tumor weight (est.), dose: 1.0 mg/kg/injection, schedule: Q07DX002 (ip), vehicle: saline, higher = larger tumour
  T/C: 90 % of control

## CCCCCCCCCCCCSC1=C(Cl)C(=O)C(OC)=C(OC)C1=O
endpoint: median tumor weight (est.), dose: 25.0 mg/kg/injection, schedule: Q07DX002 (ip), vehicle: saline with Tween-80, higher = larger tumour
  T/C: 110 % of control and 97 % of control
endpoint: median tumor weight (est.), dose: 50.0 mg/kg/injection, schedule: Q07DX002 (ip), vehicle: saline with Tween-80, higher = larger tumour
  T/C: 91 % of control and 96 % of control
endpoint: median tumor weight (est.), dose: 200.0 mg/kg/injection, schedule: Q07DX002 (ip), vehicle: saline with Tween-80, higher = larger tumour
  T/C: 104 % of control

— PubChem BioAssay AID212 (DTP/NCI, 2004)
